{"source": "patent US20110015080A1", "about": "“Solution-based methods for RNA expression profiling” (MASSACHUSETTS INSTITUTE OF TECHNOLOGY, priority 2005, published 2011)", "system": "HL60 (human promyelocytic leukemia) cells", "test": "LMA-FlexMAP analysis of microtiter well cultures of HL60 cells treated with tretinoin or DMSO, KNN classification", "key": {"[1]": {"details": "HL60 cells treated with tretinoin, Experiment 3, replicate samples"}, "[2]": {"details": "HL60 microtiter plate wells tretinoin40-47 (replicates)"}}, "note": "Where “and” joins values, the source holds several entries; their conditions need not be identical. Equal values may be shown once."}
{"compound": "CC1=C(/C=C/C(C)=C/C=C/C(C)=C/C(=O)O)C(C)(C)CCC1", "note": "[tretinoin, all-trans-retinoic acid]", "values": [{"measurement": "FlexMap signal, NM_004741 (LUA#89)", "setting": "[1]", "result": "397 and 326 and 70 and 77 and 131 and 204.5 and 315 and 415.5 and 300.5 and 58"}, {"measurement": "FlexMap signal, NM_004759 (LUA#37)", "setting": "[1]", "result": "242 and 139.5 and 32 and 41 and 60 and 119 and 132.5 and 213 and 159 and 28"}, {"measurement": "FlexMap signal, NM_005008 (LUA#77)", "setting": "[1]", "result": "242 and 301.5 and 53.5 and 87 and 114 and 239.5 and 315 and 316 and 232 and 41"}, {"measurement": "FlexMap signal, NM_005375 (LUA#86)", "setting": "[1]", "result": "548 and 553 and 131 and 196 and 334 and 547.5 and 602 and 531 and 86"}, {"measurement": "FlexMap signal, NM_005566 (LUA#85)", "setting": "[1]", "result": "539.5 and 610.5 and 89 and 117 and 183 and 197.5 and 597 and 632 and 489 and 45"}, {"measurement": "FlexMap signal, NM_005914 (LUA#60)", "setting": "[1]", "result": "525.5 and 804.5 and 102 and 218.5 and 314 and 594 and 914 and 889 and 716.5 and 44"}, {"measurement": "FlexMap signal, NM_005915 (LUA#72)", "setting": "[1]", "result": "46 and 42 and 25 and 27 and 30 and 35 and 40 and 37 and 38 and 29"}, {"measurement": "FlexMap signal, NM_005952 (LUA#66)", "setting": "[1]", "result": "204 and 199 and 43 and 56 and 74 and 143 and 200 and 197.5 and 156 and 34"}, {"measurement": "FlexMap signal, NM_005980 (LUA#73)", "setting": "[1]", "result": "160 and 157 (2×) and 32 and 43 and 52 and 102.5 and 166 and 132 and 34"}, {"measurement": "FlexMap signal, NM_006019 (LUA#35)", "setting": "[1]", "result": "810 and 792 and 73 and 140 and 227 and 497 and 747 and 787.5 and 655 and 34"}, {"measurement": "FlexMap signal, NM_006138 (LUA#56)", "setting": "[1]", "result": "87 and 95 and 37 and 40 and 49 and 67 and 97 and 102.5 and 86 and 38"}, {"measurement": "FlexMap signal, NM_006432 (LUA#27)", "setting": "[1]", "result": "1364 and 1394 and 190 and 358.5 and 574 and 1118 and 1397.5 and 1403 and 1160 and 68"}, {"measurement": "FlexMap signal, NM_006452 (LUA#71)", "setting": "[1]", "result": "52 and 60 and 25 and 37 and 37.5 and 43 and 57 and 71 and 44 and 23.5"}, {"measurement": "FlexMap signal, NM_006985 (LUA#58)", "setting": "[1]", "result": "48 and 59 (2×) and 31 and 32 and 37.5 and 45.5 and 52 and 46.5 and 30"}, {"measurement": "FlexMap signal, NM_007282 (LUA#16)", "setting": "[1]", "result": "46 and 62.5 and 27 and 29 and 30 and 42 and 53 and 61.5 and 58 and 28"}, {"measurement": "FlexMap signal, NM_014333 (LUA#26)", "setting": "[1]", "result": "613 and 656.5 and 74 and 128 and 211 and 427 and 674 and 705 and 572 and 41"}, {"measurement": "FlexMap signal, NM_014366 (LUA#61)", "setting": "[1]", "result": "217 and 294 and 38 and 61 and 89.5 and 191 and 291.5 and 299.5 and 235 and 33.5"}, {"measurement": "FlexMap signal, NM_014573 (LUA#70)", "setting": "[1]", "result": "138.5 and 144.5 and 40 and 45 and 56 and 93 and 156 and 161.5 and 123 and 38.5"}, {"measurement": "FlexMap signal, NM_015201 (LUA#57)", "setting": "[1]", "result": "208 and 198 and 40 and 49 and 64 and 139 and 197 and 228 and 156 and 31"}, {"measurement": "FlexMap signal, NM_018115 (LUA#63)", "setting": "[1]", "result": "1217 and 860.5 and 109.5 and 234 and 409 and 710.5 and 896 and 1206.5 and 927 and 61"}, {"measurement": "FlexMap signal, NM_018164 (LUA#69)", "setting": "[1]", "result": "148.5 and 149 and 37 and 46 and 67 and 139 and 150 and 156.5 and 133 and 36"}, {"measurement": "FlexMap signal, NM_018256 (LUA#83)", "setting": "[1]", "result": "638.5 and 688.5 and 178.5 and 177 and 268 and 371 and 633 and 804.5 and 779 and 151"}, {"measurement": "FlexMap signal, NM_018890 (LUA#33)", "setting": "[1]", "result": "737 and 769 and 82 and 151.5 and 240 and 534.5 and 760 and 762 and 652 and 41"}, {"measurement": "FlexMap signal, NM_019058 (LUA#75)", "setting": "[1]", "result": "102 and 129 and 37 and 48 and 56 and 90 and 126 and 97 and 34"}, {"measurement": "FlexMap signal, NM_020117 (LUA#78)", "setting": "[1]", "result": "487 and 502 and 65 and 114 and 184 and 371 and 519 and 543 and 415 and 45"}, {"measurement": "FlexMap signal, NM_021103 (LUA#41)", "setting": "[1]", "result": "629 and 2096 and 467.5 and 781.5 and 992 and 1953 and 2465.5 and 2408 and 495 and 142"}, {"measurement": "FlexMap signal, NM_021203 (LUA#80)", "setting": "[1]", "result": "445.5 and 471 and 65 and 109 and 165 and 355 and 480 and 514 and 369 and 46"}, {"measurement": "FlexMap signal, NM_021974 (LUA#64)", "setting": "[1]", "result": "776 and 891 and 136.5 and 255.5 and 403 and 781.5 and 929 and 940 and 667.5 and 55"}, {"measurement": "FlexMap signal, NM_024045 (LUA#65)", "setting": "[1]", "result": "112 and 127.5 and 35 and 40 and 57 and 92.5 and 135.5 and 110 and 29"}, {"measurement": "FlexMap signal, TFRC (LUA#92)", "setting": "[1]", "result": "252 and 255 and 54 and 66 and 90 and 168 and 256 and 272 and 213 and 45"}, {"measurement": "ACTB LUA#91 FlexMap level", "setting": "[2]", "result": "344 and 2113 and 2976 and 3020 and 2200 and 2601 and 2521 and 1195"}, {"measurement": "GAPDH_3 LUA#95 FlexMap level", "setting": "[2]", "result": "1659 and 3754 and 4065 and 4240 and 3880 and 3379 and 3353.5 and 1707.5"}, {"measurement": "GAPDH_5 LUA#93 FlexMap level", "setting": "[2]", "result": "238 and 1501 and 2205.5 and 2064 and 1482 and 1768.5 and 1737 and 843"}, {"measurement": "GAPDH_M LUA#94 FlexMap level", "setting": "[2]", "result": "642 and 3318 and 3783.5 and 3886 and 3205 and 3303 and 3248 and 1513"}, {"measurement": "NM_000070 LUA#2 FlexMap level", "setting": "[2]", "result": "84.5 and 400 and 756 and 769.5 and 717.5 and 638.5 and 741 and 490.5"}, {"measurement": "NM_000147 LUA#29 FlexMap level", "setting": "[2]", "result": "48 and 184 and 276.5 and 330.5 and 274 and 275 and 318 and 288"}, {"measurement": "NM_000153 LUA#10 FlexMap level", "setting": "[2]", "result": "35 and 90 and 138 (2×) and 150 and 120 and 171.5 and 223"}, {"measurement": "NM_000211 LUA#39 FlexMap level", "setting": "[2]", "result": "81 and 598.5 and 1229 and 1162.5 and 868 and 1061 and 973 and 440.5"}, {"measurement": "NM_000250 LUA#87 FlexMap level", "setting": "[2]", "result": "261.5 and 1504 and 2135 and 2243 and 1820 and 2094 and 1863 and 1124"}, {"measurement": "NM_000414 LUA#22 FlexMap level", "setting": "[2]", "result": "79.5 and 477 and 902 and 920 and 503 and 800 and 838 and 646"}, {"measurement": "NM_000433 LUA#28 FlexMap level", "setting": "[2]", "result": "53 and 234 and 451.5 and 466 and 318 and 421 and 370.5 and 244.5"}, {"measurement": "NM_000584 LUA#30 FlexMap level", "setting": "[2]", "result": "45 and 189 and 470 and 461 and 435 and 379 and 597 and 352"}]}
